Assay results from patent US12617784B2, “AKT inhibitor” (Nanjing Chia Tai Tianqing Pharmaceutical Co., Ltd., priority 2019, dated 2026).
Structures can show the parent of a compound that is named as a salt. Where two headings read alike, the source gives them in different places.

Assays:
[1] = biological target: AKT1 (Homo sapiens, UniProt P31749); assay: In vitro enzyme activity test (HTRF kinEASE TK), AKT1; format: biochemical; settings: ATP 2 μM, enzyme 0.6 ng/well, reaction 50 min
Protocol: (§1) Experimental Procedure 2.1 Preparation of Reagents
(§2) 1 mL 1× Kinase Reaction Buffer of Kinase AKT1, AKT2 and AKT3 contain 200 μL 5× Kinase Reaction Buffer, 5 μL 1 M MgCl2, 1 μL 1 M DTT and 794 μL ultrapure water.
(§3) In addition to the control wells, 4 μL of the diluted compound working solutions were added to all reaction wells.
(§4) b) 2 μL of the previously prepared TK-biotin substrate solution was added to all reaction wells.
(§5) c) 2 μL of the previously prepared enzyme solution was added to all reaction wells, except the negative wells. The volume of the negative well was filled with 2 μL of enzyme corresponding to 1× kinase reaction buffer. The plate was sealed with sealing film. After mixing, the plate was incubated at room temperature for 10 min to allow the compound and enzyme to fully combined.
(§6) d) 2 μL of ATP solution was added to all reaction wells to start the kinase reaction.
(§7) e) The test solution was prepared 5 min before the end of the kinase reaction.
(§8) f) After the kinase reaction was completed, 5 μL of diluted streptavidin-XL665 were added to all reaction wells, and immediately the diluted europium-labeled tyrosine kinase substrate antibody detection solution was added after mixing.
(§9) g) The plate was sealed and mixed well. […] The inhibition rate of each well was calculated through the fully active wells and the background signal wells, taking the average value in case of multiple wells. Meanwhile, the professional drawing analysis software PRISM 6.0 was used to fit the half maximal inhibitory concentration (IC50) of each test compound.

[2] = biological target: T1, AKT3 (Homo sapiens, UniProt Q9Y243); assay: In vitro enzyme activity test (HTRF kinEASE TK), AKT3; format: biochemical; settings: enzyme 0.3 ng/well, reaction 50 min
T1 construct: purchased Invitrogen PV3185
T1 sequence (Q9Y243 whole entry): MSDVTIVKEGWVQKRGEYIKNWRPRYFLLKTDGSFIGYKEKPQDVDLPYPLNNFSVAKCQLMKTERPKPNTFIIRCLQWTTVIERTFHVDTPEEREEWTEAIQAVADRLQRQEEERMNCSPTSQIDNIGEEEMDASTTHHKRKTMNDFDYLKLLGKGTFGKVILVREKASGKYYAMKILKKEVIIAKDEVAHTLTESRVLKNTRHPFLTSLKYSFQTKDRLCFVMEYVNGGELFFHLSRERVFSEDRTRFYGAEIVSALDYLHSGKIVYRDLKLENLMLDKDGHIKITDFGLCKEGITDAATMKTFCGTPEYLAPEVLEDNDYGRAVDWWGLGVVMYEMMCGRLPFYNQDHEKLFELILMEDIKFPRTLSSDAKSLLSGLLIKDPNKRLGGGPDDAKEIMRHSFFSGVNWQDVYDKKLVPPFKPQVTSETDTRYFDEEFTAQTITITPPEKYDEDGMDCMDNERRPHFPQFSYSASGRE
Protocol: as §1, §2, §3, §4, §5, §6, §7, §8, §9

[3] = biological target: T2, AKT2 (Homo sapiens, UniProt P31751); assay: In vitro enzyme activity test (HTRF kinEASE TK), AKT2; format: biochemical; settings: ATP 20 μM, enzyme 0.1 ng/well, reaction 50 min
T2 construct: purchased Carna 01-102
T2 sequence (P31751 whole entry): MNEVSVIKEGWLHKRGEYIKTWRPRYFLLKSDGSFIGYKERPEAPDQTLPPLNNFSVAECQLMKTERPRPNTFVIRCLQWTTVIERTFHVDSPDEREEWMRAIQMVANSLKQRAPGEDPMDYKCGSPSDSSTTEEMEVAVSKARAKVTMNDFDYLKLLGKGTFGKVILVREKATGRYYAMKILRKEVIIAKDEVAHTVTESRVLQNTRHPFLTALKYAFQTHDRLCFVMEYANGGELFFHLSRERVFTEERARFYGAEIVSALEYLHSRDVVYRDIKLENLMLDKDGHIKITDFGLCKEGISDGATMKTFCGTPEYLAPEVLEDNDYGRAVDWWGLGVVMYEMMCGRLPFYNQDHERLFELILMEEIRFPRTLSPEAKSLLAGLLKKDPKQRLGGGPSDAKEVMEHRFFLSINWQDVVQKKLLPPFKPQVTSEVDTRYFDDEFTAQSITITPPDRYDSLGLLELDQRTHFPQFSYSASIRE
Protocol: as §1, §2, §3, §4, §5, §6, §7, §8, §9

[4] = Pharmacokinetic evaluation in mice after intragastric administration; format: in vivo, mouse; settings: po
Protocol: 400 μl of stock solution with a concentration of 10 mg/mL was accurately pipetted into a glass bottle, and 3.6 mL of mixed menstruum was added. The ratio of the menstruum in the final formulation is DMSO:mixed menstruum (v/v)=10:90. After vortexing (or sonication) and evenly distributed, 4 mL of a dosing solution with a concentration of 1 mg mL^-1 for each compound was obtained. Formulation of Isomer 2 of the compound of Example 15: Menstruum: DMSO: PEG400: ultrapure water=5:20:75 (v/v/v) 5.37 mg of test sample Isomer 2 of the compound of Example 15 was weighed into a glass bottle; 0.269 mL of DMSO was added, vortexed to completely dissolve the solid material; 1.074 mL of PEG400 was added, vortexed, and mixed; 4.028 mL of ultrapure water was added, vortexed and mixed to obtain a colorless solution with a concentration of 1 mg·mL^-1. Experimental animal: mouse, strain ICR, source: Weitong Lihua Laboratory Animal Technology Co., Ltd., age: 6-10 weeks, male. [table] The experimental animals were fed in the animal room of Suzhou Shengsu New Pharmaceutical Development Co., Ltd. The animal room was well ventilated and equipped with air conditioning. The temperature was maintained at 20-25° C. and the humidity was maintained at 40%-70%. Bright and dark lighting for 12 hours each, and the experimental animals ate and drank freely. After normal feeding for at least 5 days, mice with good physical signs were selected for this experiment after veterinary inspection. Each mouse was marked with a tag on its tail. On the day before the experiment, the mice were fasted overnight and were allowed to drink freely, and were fed 4 hours after the administration. […] After the administration, about 100 μL of blood was collected from the orbit of the mouse at each time point and placed in an EDTA-K2 anticoagulation tube. […] An LC-MS/MS analytical method for determining the concentration of compounds in mouse plasma was established and used to determine the concentration of compounds in the biological samples obtained in this experiment. The non-compartmental model in Pharsight Phoenix 7.0 was used to calculate the pharmacokinetic parameters.

[5] = male ICR mouse, 10 mg·kg−1 intragastrically, single dose, fasted, plasma
[6] = male ICR mouse, 10 mg·kg−1 intragastrically, single dose, fasted, plasma, read-out: AUC
[7] = male ICR mouse, 10 mg·kg−1 intragastrically, single dose, fasted, plasma, read-out: Cmax
[8] = male ICR mouse, 10 mg·kg−1 intragastrically, single dose, fasted, plasma, read-out: Tmax
[9] = male, ICR, mouse, in vivo, 10 mg/kg

AKT1, sequence (P31749 whole entry): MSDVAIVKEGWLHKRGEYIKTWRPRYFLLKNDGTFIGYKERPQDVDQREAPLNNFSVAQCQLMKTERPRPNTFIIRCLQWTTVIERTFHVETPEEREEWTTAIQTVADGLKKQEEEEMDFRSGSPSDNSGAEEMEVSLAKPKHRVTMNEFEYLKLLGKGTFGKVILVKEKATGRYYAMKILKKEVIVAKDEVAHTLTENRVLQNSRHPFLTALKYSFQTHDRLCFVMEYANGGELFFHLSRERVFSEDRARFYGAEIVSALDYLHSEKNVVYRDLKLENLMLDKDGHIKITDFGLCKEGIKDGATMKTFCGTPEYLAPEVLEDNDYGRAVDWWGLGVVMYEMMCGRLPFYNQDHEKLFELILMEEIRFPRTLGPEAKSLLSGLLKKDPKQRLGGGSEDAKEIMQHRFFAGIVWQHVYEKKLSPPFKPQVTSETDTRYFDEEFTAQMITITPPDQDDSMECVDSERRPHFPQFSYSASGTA

SMILES | IC50 [1] [µM] | IC50 [2] [µM] | IC50 [3] [µM] | other results
CC(C)NC[C@@H](C(=O)N1CCN(c2ncnc3c2[C@H](C)CC(=O)N3)CC1)c1ccc(Cl)cc1 [Example 2 (R) Configur- ation product, (R)-4-(4-((S)-2-(4-chlorophenyl)-3-(isopropylamino)propionyl)piperazin-1-yl)-5-methyl-5,8-dihydropyrido[2,3-d]pyrimidin-7(6H)-one] | 0.0024 | 0.0004 | 0.0043 | 
CCN1CC(=O)Nc2ncnc(N3CC4CCC(C3)N4C(=O)[C@H](CNC(C)C)c3ccc(Cl)cc3)c21 [Example 28] | 0.0021 | 0.00019 | 0.089 | 
CC(C)NC[C@@H](C(=O)N1C2CCC1CN(c1ncnc3[nH]c(=O)c(=O)n(C)c13)C2)c1ccc(Cl)cc1 [Example 36, 4-(8-((S)-2-(4-chlorophenyl)-3-(isopropylamino)propionyl)-3,8-diazabicyclo[3.2.1]octan-3-yl)-5-methyl-5,8-dihydropteridine-6,7-dione] | 0.077 | 0.022 | 0.8 | 
CC(C)NC[C@@H](C(=O)N1CCN(c2ncnc3c2[C@H](C)C[C@H]3O)CC1)c1ccc(Cl)cc1 [GDC-0068, reference compound] |  |  |  | half-life [4, 5]: 2.59 h; AUC [4, 6]: 320 ng·h/mL; Cmax [4, 7]: 75.3 ng/mL; Tmax [4, 8]: 2 h
CC(C)NC[C@@H](C(=O)N1C2CCC1CN(c1ncnc3c1[C@H](C)CC(=O)N3)C2)c1ccc(Cl)cc1 [Example 10, (R)-4-(8-((S)-2-(4-chlorophenyl)-3-(isopropylamino)propionyl)-3,8-diazabicyclo[3.2.1]octan-3-yl)-5-methyl-5,8-dihydropyrido[2,3-d]pyrimidin-7(6H)-one] | 0.0028 | 0.00021 |  | half-life [4, 5]: 1.67 h; AUC [4, 6]: 911 ng·h/mL; Cmax [4, 7]: 321 ng/mL; Tmax [4, 8]: 0.5 h
CC(C)NC[C@@H](C(=O)N1CC2CCC(C1)N2c1ncnc2c1[C@@H](C(F)(F)F)CC(=O)N2)c1ccc(Cl)cc1 (single isomer, unassigned) [Example 25 Isomer 1] | 0.218 | 0.02 | ≥ 1 | 
CC(C)NC[C@@H](C(=O)N1C2CCC1CN(c1ncnc3c1[C@H](C(F)(F)F)CC(=O)N3)C2)c1ccc(Cl)cc1 (single isomer, unassigned) [Example 24 Isomer 2] | 0.116 | 0.019 | ≥ 1 | 
CC(C)NC[C@@H](C(=O)N1CCN(c2ncnc3c2N(C)CC(=O)N3)[C@@H]2C[C@@H]21)c1ccc(Cl)cc1 (single isomer, unassigned) [Example 27 Isomer 2] | 0.147 | 0.0074 | ≥ 1 | 
C[C@@H]1CC(=O)Nc2ncnc(N3CCN(C(=O)C4(c5ccc(Cl)cc5)CCNCC4)CC3)c21 [Example 18, (R)-4-(4-(4-(4-chlorophenyl)piperidin-4-carbonyl)piperazin-1-yl)-5-methyl-5,8-dihydropyrido[2,3-d]pyrimidin-7(6H)-one formate] | 0.59 | 0.0201 | 0.256 | 
CC(C)NC[C@@H](C(=O)N1C2CCC1CN(c1ncnc3c1N(C)CC(=O)N3)C2)c1ccc(Cl)cc1 [Example 21, 4-(8-((S)-2-(4-chlorophenyl)-3-(isopropylamino)propionyl)-3,8-diazabicyclo[3.2.1]octan-3-yl)-5-methyl-5,8-dihydropteridine-7(6H)-one formate] | 0.0019 | 0.0002 |  | AUC [4, 9]: 2290 ng·h/mL; Cmax [4, 9]: 681 ng/mL; Tmax [4, 9]: 1 h
CC(C)NC[C@@H](C(=O)N1CC2CCC(C1)N2c1ncnc2c1[C@H](C(F)(F)F)CC(=O)N2)c1ccc(Cl)cc1 (single isomer, unassigned) [Example 25 Isomer 2] | 0.00059 | 0.00019 | 0.02 | 
CC(C)NC[C@@H](C(=O)N1CCN(c2ncnc3c2N(C)CC(=O)N3)C[C@@H]1C)c1ccc(Cl)cc1 [Example 22, 4-((S)-4-((S)-2-(4-chlorophenyl)-3-(isopropylamino)propionyl)-3-methylpiperazin-1-yl)-5-methyl-5,8-dihydropteridine-7(6H)-one] | 0.039 | 0.00056 | 0.334 | 
CC(C)NC[C@@H](C(=O)N1CC2CCC(C1)N2c1ncnc2c1[C@@H](C)OC(=O)N2)c1ccc(Cl)cc1 (single isomer, unassigned) [Example 33 Isomer 2] | 0.26 | 0.055 |  | 
CC(C)NC[C@@H](C(=O)N1CCN(c2ncnc3c2[C@H](C)CC(=O)N3)[C@H]2C[C@H]21)c1ccc(Cl)cc1 (single isomer, unassigned) [Example 15 Isomer 2] |  |  |  | half-life [4, 5]: 3.16 h; AUC [4, 6]: 2170 ng·h/mL; Cmax [4, 7]: 583 ng/mL; Tmax [4, 8]: 1 h
CC(C)NC[C@@H](C(=O)N1C2CCC1CN(c1ncnc3c1N(CCO)CC(=O)N3)C2)c1ccc(Cl)cc1 [Example 31] | 0.21 | 0.0018 | ≥ 1 | 
CC(C)NC[C@@H](C(=O)N1C2CCC1CN(c1ncnc3c1[C@@H]1C[C@@H]1C(=O)N3)C2)c1ccc(Cl)cc1 (single isomer, unassigned) [Example 39 Isomer 1] | 0.013 | 0.0076 | 0.075 | 
CC(C)NC[C@@H](C(=O)N1C2CCC1CN(c1ncnc3c1[C@H]1C[C@H]1C(=O)N3)C2)c1ccc(Cl)cc1 (single isomer, unassigned) [Example 39 Isomer 2] | 0.151 | 0.043 | 0.756 | 
CC(C)NC[C@@H](C(=O)N1CCN(c2ncnc3c2[C@H](C(F)(F)F)CC(=O)N3)CC1)c1ccc(Cl)cc1 (single isomer, unassigned) [Example 16 Isomer 2] | 0.012 | 0.001 |  | 
CC(C)NC[C@@H](C(=O)N1CCN(c2ncnc3c2[C@@H](C)OC(=O)N3)[C@H]2C[C@H]21)c1ccc(Cl)cc1 (single isomer, unassigned) [Example 34 Isomer 3] | 0.429 | 0.232 |  | 
C[C@@H]1CC(=O)Nc2ncnc(N3CC4CCC(C3)N4C(=O)[C@H](CNC3CC3)c3ccc(Cl)cc3)c21 [Example 38] | 0.0024 | 0.00028 | 0.023 | 
CC(C)NC[C@@H](C(=O)N1CCN(c2ncnc3c2[C@@H](C)OC(=O)N3)CC1)c1ccc(Cl)cc1 (single isomer, unassigned) [Example 23 Isomer 2] | 0.201 | 0.042 |  | 
CC(C)NC[C@@H](C(=O)N1CCN(c2ncnc3c2[C@H](C)OC(=O)N3)[C@H]2C[C@H]21)c1ccc(Cl)cc1 (single isomer, unassigned) [Example 34 Isomer 4] | 0.0006 | 0.00012 |  | AUC [4, 6]: 2580 ng·h/mL; Cmax [4, 7]: 497 ng/mL; Tmax [4, 8]: 4 h
CC(C)NCC(C(=O)N1CCN(c2ncnc3c2[C@H](C)CC(=O)N3)C[C@@H]1C)c1ccc(Cl)cc1 (stereo in doubt) [Example 9, (R)-4-((S)-4-((R)-2-(4-chlorophenyl)-3-(isopropylamino)propionyl)-3-methylpiperazin-1-yl)-5-methyl-5,8-dihydropyrido[2,3-d]pyrimidin-7(6H)-one] | 0.167 | 0.0033 | 0.206 | 
